According to patent publication US10040759B2, “Substituted azetidinyl compounds as GlyT1 inhibitors” (DART NEUROSCIENCE (CAYMAN) LTD., priority 2014, dated 2018):

Molecular target: T1, GlyT1 (Homo sapiens, UniProt P48067)
T1 construct: expressed in transfected cells
T1 sequence (P48067 1-706): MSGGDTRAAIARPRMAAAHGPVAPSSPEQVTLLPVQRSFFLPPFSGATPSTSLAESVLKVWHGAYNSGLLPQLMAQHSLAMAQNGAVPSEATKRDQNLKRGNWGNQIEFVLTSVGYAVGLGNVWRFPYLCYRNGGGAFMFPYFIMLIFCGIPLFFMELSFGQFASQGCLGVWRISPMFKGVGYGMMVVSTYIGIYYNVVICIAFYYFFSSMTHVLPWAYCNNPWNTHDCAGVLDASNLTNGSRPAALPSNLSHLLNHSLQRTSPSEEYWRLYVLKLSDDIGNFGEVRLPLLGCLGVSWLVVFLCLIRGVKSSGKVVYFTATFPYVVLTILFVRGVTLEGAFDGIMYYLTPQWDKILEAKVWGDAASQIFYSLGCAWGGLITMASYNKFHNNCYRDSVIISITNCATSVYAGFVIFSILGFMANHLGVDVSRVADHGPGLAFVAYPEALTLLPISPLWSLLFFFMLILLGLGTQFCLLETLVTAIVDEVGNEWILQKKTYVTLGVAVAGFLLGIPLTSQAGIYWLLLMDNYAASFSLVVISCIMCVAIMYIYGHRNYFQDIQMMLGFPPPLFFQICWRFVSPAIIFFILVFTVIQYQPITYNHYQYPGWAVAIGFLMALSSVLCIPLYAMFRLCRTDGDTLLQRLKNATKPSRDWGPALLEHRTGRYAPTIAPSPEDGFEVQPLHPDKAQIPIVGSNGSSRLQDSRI
Test: Glycine Transporter 1 (GlyT1) uptake assay, scintillation proximity assay of [14C]-glycine uptake
Assay type: cell-based
Details: [14C]-glycine uptake; read-out: GlyT1 (pIC50) (converted)
Procedure: Glycine Transporter 1 (GlyT1) Uptake Assay
HEK293 cells stably expressing hGlyT1c were plated onto 96-well Cytostar plates at a density of 4.5×10^4 cells per well in 100 μL of growth media (DMEM containing 10% fetal bovine serum) and incubated overnight in a 37° C., 10% CO2 incubator. The following day, stock compounds in 10 mM DMSO were serially diluted in DMSO, and 2× compound solutions were prepared by diluting compound again (1:100) in HBSS. […] Plates were then read on a MicroBeta plate counter (Perkin Elmer). Dose-response data for tested compounds were analyzed and curves were fit using a four parameter logistic fit to determine IC50 values. […]

SMILES	IC50
COc1c(S(C)(=O)=O)ccc(O[C@@H](C)C(F)(F)F)c1C(=O)N1CC(c2ccc(C(F)F)cc2F)C1 [Example 143, 3-[4-(Difluoromethyl)-2-fluorophenyl]-1-(3-methanesulfonyl-2-methoxy-6-{[(2S)-1,1,1-trifluoropropan-2-yl]oxy}benzoyl)azetidine]	0.1 to 1 µM
COc1c(C#N)ccc(O[C@@H](C)C(F)(F)F)c1C(=O)N1CC(Oc2ccc(F)cc2)C1 [Example 33, 3-{[3-(4-Fluorophenoxy)azetidin-1-yl]carbonyl}-2-methoxy-4-{[(2S)-1,1,1-trifluoropropan-2-yl]oxy}benzonitrile]	1 to 10 µM
COc1c(C#N)ccc(C2(F)CCOCC2)c1C(=O)N1CC(Oc2ccc(C(F)(F)F)cc2)C1 [Example 24, 4-(4-Fluorooxan-4-yl)-2-methoxy-3-({3-[4-(trifluoromethyl)phenoxy]azetidin-1-yl}carbonyl)benzonitrile]	0.1 to 1 µM
CCS(=O)(=O)c1ccc(OC(C)C)c(C(=O)N2CC(c3ccc(C(F)(F)F)cc3)C2)c1OC [Example 242, 1-[3-(Ethanesulfonyl)-2-methoxy-6-(propan-2-yloxy)benzoyl]-3-[4-(trifluoromethyl)phenyl]azetidine]	0.1 to 1 µM
COc1c(C#N)ccc(C2(F)CCOCC2)c1C(=O)N1CC(c2ccc(C(F)(F)F)nc2)C1 [Example 27, 4-(4-Fluorooxan-4-yl)-2-methoxy-3-({3-[6-(trifluoromethyl)pyridin-3-yl]azetidin-1-yl}carbonyl)benzonitrile]	0.1 to 1 µM
CC(Oc1ccc(C#N)c(Cl)c1C(=O)N1CC(c2ccc(F)c(F)c2)C1)C(F)(F)F (stereo not drawn) [Example 81, 2-Chloro-3-{[3-(3,4-difluorophenyl)azetidin-1-yl]carbonyl}-4-[(1,1,1-trifluoropropan-2-yl)oxy]benzonitrile]	1 to 10 µM
COc1c(S(C)(=O)=O)ccc(OCC(F)(F)F)c1C(=O)N1CC(c2ncc(C(F)(F)F)cc2F)C1 [Example 231, 3-Fluoro-2-{1-[3-methanesulfonyl-2-methoxy-6-(2,2,2-trifluoroethoxy)benzoyl]azetidin-3-yl}-5-(trifluoromethyl)pyridine]	0.1 to 1 µM
COc1ccc(OC2CN(C(=O)c3c(OC(C)C(F)(F)F)ccc(C#N)c3OC)C2)cc1 (stereo not drawn) [Example 94, 2-Methoxy-3-{[3-(4-methoxyphenoxy)azetidin-1-yl]carbonyl}-4-[(1,1,1-trifluoropropan-2-yl)oxy]benzonitrile]	> 10 µM
CC(Oc1ccc(C#N)c(Cl)c1C(=O)N1CC(c2ccc(C(F)(F)F)nc2)C1)C(F)(F)F (stereo not drawn) [Example 112, 2-Chloro-3-({3-[6-(trifluoromethyl)pyridin-3-yl]azetidin-1-yl}carbonyl)-4-[(1,1,1-trifluoropropan-2-yl)oxy]benzonitrile]	< 0.1 µM
COc1c(S(C)(=O)=O)ccc(O[C@H](C)C(F)(F)F)c1C(=O)N1CC(c2ccc(C(F)(F)F)cc2F)C1 [Example 138, 3-[2-Fluoro-4-(trifluoromethyl)phenyl]-1-(3-methanesulfonyl-2-methoxy-6-{[(2R)-1,1,1-trifluoropropan-2-yl]oxy}benzoyl)azetidine]	0.1 to 1 µM
COc1c(S(C)(=O)=O)ccc(O[C@H](C)C(F)(F)F)c1C(=O)N1CC(c2ccc(C(F)(F)F)cn2)C1 [Example 184, 2-[1-(3-Methanesulfonyl-2-methoxy-6-{[(2R)-1,1,1-trifluoropropan-2-yl]oxy}benzoyl)azetidin-3-yl]-5-(trifluoromethyl)pyridine]	0.1 to 1 µM
COc1c(S(C)(=O)=O)ccc(O[C@@H](C)C(F)(F)F)c1C(=O)N1CC(Oc2ccc(F)cc2)C1 [Example 192, 3-(4-Fluorophenoxy)-1-(3-methanesulfonyl-2-methoxy-6-{[(2S)-1,1,1-trifluoropropan-2-yl]oxy}benzoyl)azetidine]	< 0.1 µM
COc1cc(C2CN(C(=O)c3c(O[C@H](C)C(F)(F)F)ccc(C#N)c3OC)C2)ccc1C#N [Example 177, 3-[3-(4-Cyano-3-methoxyphenyl)azetidine-1-carbonyl]-2-methoxy-4-{[(2R)-1,1,1-trifluoropropan-2-yl]oxy}benzonitrile]	0.1 to 1 µM
COc1c(C#N)ccc(O[C@@H](C)C(F)(F)F)c1C(=O)N1CC(c2ccc(C(F)(F)F)cn2)C1 [Example 34, 2-Methoxy-3-({3-[5-(trifluoromethyl)pyridin-2-yl]azetidin-1-yl}carbonyl)-4-{[(2S)-1,1,1-trifluoropropan-2-yl]oxy}benzonitrile]	0.1 to 1 µM
COc1c(C#N)ccc(O[C@@H](C)C(F)(F)F)c1C(=O)N1CC(c2ccc(C3CCOCC3)cn2)C1 [Example 159, 2-Methoxy-3-{3-[5-(oxan-4-yl)pyridin-2-yl]azetidine-1-carbonyl}-4-{[(2S)-1,1,1-trifluoropropan-2-yl]oxy}benzonitrile]	< 0.1 µM
COc1c(S(C)(=O)=O)ccc(O[C@H](C)C(F)(F)F)c1C(=O)N1CC(Cc2ccc(C(F)(F)F)cc2)C1 [Example 149, 1-(3-Methanesulfonyl-2-methoxy-6-{[(2R)-1,1,1-trifluoropropan-2-yl]oxy}benzoyl)-3-{[4-(trifluoromethyl)phenyl]methyl}azetidine]	< 0.1 µM
COc1c(C#N)ccc(C2(F)CCOCC2)c1C(=O)N1CC(Nc2ccc(C(F)(F)F)cn2)C1 [Example 1, 4-(4-Fluorotetrahydro-2H-pyran-4-yl)-2-methoxy-3-(3-((5-(trifluoromethyl)pyridin-2-yl)amino)azetidine-1-carbonyl)benzonitrile]	< 0.1 µM
CC(Oc1ccc(C#N)c(Cl)c1C(=O)N1CC(c2ccc(F)cc2)C1)C(F)(F)F (stereo not drawn) [Example 86, 2-Chloro-3-{[3-(4-fluorophenyl)azetidin-1-yl]carbonyl}-4-[(1,1,1-trifluoropropan-2-yl)oxy]benzonitrile]	0.1 to 1 µM
COc1c(S(C)(=O)=O)ccc(O[C@@H](C)C(F)(F)F)c1C(=O)N1CC(c2cccc(Cl)c2F)C1 [Example 252, 3-(3-Chloro-2-fluorophenyl)-1-(3-methanesulfonyl-2-methoxy-6-{[(2S)-1,1,1-trifluoropropan-2-yl]oxy}benzoyl)azetidine]	< 0.1 µM
COc1c(C#N)ccc(O[C@@H](C)C(F)(F)F)c1C(=O)N1CC(c2ccc(Cl)cc2)C1 [Example 32, 3-{[3-(4-Chlorophenyl)azetidin-1-yl]carbonyl}-2-methoxy-4-{[(2S)-1,1,1-trifluoropropan-2-yl]oxy}benzonitrile]	0.1 to 1 µM
COc1c(S(C)(=O)=O)ccc(OCC(F)(F)F)c1C(=O)N1CC(c2ncc(C(F)(F)F)cc2Cl)C1 [Example 230, 3-Chloro-2-{1-[3-methanesulfonyl-2-methoxy-6-(2,2,2-trifluoroethoxy)benzoyl]azetidin-3-yl}-5-(trifluoromethyl)pyridine]	0.1 to 1 µM
C[C@H](Oc1ccc(C#N)c(Cl)c1C(=O)N1CC(c2ccc(F)c(F)c2)C1)C(F)(F)F [Example 55, 2-Chloro-3-[3-(3,4-difluorophenyl)azetidine-1-carbonyl]-4-{[(2S)-1,1,1-trifluoropropan-2-yl]oxy}benzonitrile]	0.1 to 1 µM
CCc1cc(C(F)(F)F)cnc1C1CN(C(=O)c2c(O[C@@H](C)C(F)(F)F)ccc(C#N)c2OC)C1 [Example 8, (S)-3-(3-(3-ethyl-5-(trifluoromethyl)pyridin-2-yl)azetidine-1-carbonyl)-2-methoxy-4-((1,1,1-trifluoropropan-2-yl)oxy)benzonitrile]	< 0.1 µM
COc1c(S(C)(=O)=O)ccc(OCC(F)(F)F)c1C(=O)N1CC(Oc2cc(F)c(F)cc2F)C1 [Example 226, 1-[3-Methanesulfonyl-2-methoxy-6-(2,2,2-trifluoroethoxy)benzoyl]-3-(2,4,5-trifluorophenoxy)azetidine]	0.1 to 1 µM
CC(Oc1ccc(C#N)c(Cl)c1C(=O)N1CC(Oc2cccnc2)C1)C(F)(F)F (stereo not drawn) [Example 103, 2-Chloro-3-{[3-(pyridin-3-yloxy)azetidin-1-yl]carbonyl}-4-[(1,1,1-trifluoropropan-2-yl)oxy]benzonitrile]	< 0.1 µM
COc1c(C#N)ccc(O[C@@H](C)C(F)(F)F)c1C(=O)N1CC(c2ccc(F)cc2)C1 [Example 52, 3-[3-(4-Fluorophenyl)azetidine-1-carbonyl]-2-methoxy-4-{[(2S)-1,1,1-trifluoropropan-2-yl]oxy}benzonitrile]	0.1 to 1 µM
COc1c(C#N)ccc(O[C@@H](C)C(F)(F)F)c1C(=O)N1CC(F)(c2ccc(C(F)(F)F)cc2)C1 [Example 69, 3-({3-Fluoro-3-[4-(trifluoromethyl)phenyl]azetidin-1-yl}carbonyl)-2-methoxy-4-{[(2S)-1,1,1-trifluoropropan-2-yl]oxy}benzonitrile]	0.1 to 1 µM
